The results in this text go back to patent publication US20230118142A1, “AGENTS FOR USE IN THE TREATMENT OF TISSUE DAMAGE” (UCL BUSINESS LTD, priority 2020, published 2023).

In assay [1] the target is T1, CRP (Homo sapiens, UniProt P02741).
T1 sequence (P02741 19-224): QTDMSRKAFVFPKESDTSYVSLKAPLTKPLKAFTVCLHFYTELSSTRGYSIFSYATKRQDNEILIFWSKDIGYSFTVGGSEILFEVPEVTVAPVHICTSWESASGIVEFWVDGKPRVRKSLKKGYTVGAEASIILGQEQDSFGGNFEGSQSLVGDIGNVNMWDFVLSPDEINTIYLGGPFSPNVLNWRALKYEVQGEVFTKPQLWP
Nature of the assay: Immobilised phosphocholine plate assay (125I-CRP binding). Set-up: The final concentrations were 0.73 μM native pentameric CRP; from tissue. The following applies: read-out: IC50 for inhibition of 125I-CRP binding to immobilised phosphocholine. The procedure:
(i) Phosphocholine was immobilised on Greiner NHS-activated microtitre plates by incubation with 4-aminophenyl-1-phosphocholine. Remaining active sites were blocked by incubation with 4% w/v BSA in TC buffer (TCB).
(ii) Human CRP at 1 μg/ml in TC buffer was spiked with ^125I-labelled CRP to provide 10^6 cpm/ml.
(iii) Compounds were prepared from up to 10 mM stock solutions by dilution in TC buffer to 0.5 mM (labelled S1). Serial dilutions were prepared by diluting 100 μl ligand solution with 200 μl TC buffer (S2-S10). A ligand-free control was also used (SO, TC only).
(iv) A 100 μl volume of CRP solution was incubated with 10 μl of each compound (S1-S10, SO) for 1 h at room temperature without stirring, to provide final ligand concentrations across the range 45.5 μM-6.9 nM with a ligand:CRP monomer molar ratio of 1151-0.06. In some cases, single fixed ligand concentrations were also assayed in comparison with PC.
(v) A 100 μl volume of each CRP-ligand mixture was added to the plate wells and incubated for 2 h at room temperature. Solutions were then discarded and the plates washed with TCB buffer. Bound radioactivity was measured (1 min counts) using a gamma counter (Perkin Elmer Wizard 2470).
(vi) Data were plotted with Sigmaplot v14 software using the 4-parameter logistic curve y=min+(max−min)/(1+(x/EC50)^−Hill slope) to calculate IC50.

In assay [2] the target is T1, CRP. Nature of the assay: Size exclusion chromatography of CRP/ligand cross linking. Set-up: The final concentrations were 0.73 μM native pentameric CRP; from tissue. In kind it is binding. In general terms: In gel filtration, larger molecules generally elute earlier.
Assay [3] deals with T1, CRP. Nature of the assay: Stability of pre-formed CRP/ligand complexes in vitro (mouse plasma, whole blood, shear forces, dialysis). On the set-up: from tissue. The procedure:
Pre-formed complexes of CRP/Pk-023 (with 5-fold molar excess of ligand over CRP pentamer), or CRP alone, were co-incubated, unstirred, in TC buffer (control), fresh mouse heparinised plasma or fresh heparinised whole mouse blood at 37° C. for up to 3 hours. CRP concentrations in plasma were then measured by Roche immunoassay. […] On addition of EDTA to dissociate CRP ligand binding, Roche CRP concentrations in all CRP/Pk-023 samples recovered to ˜70% of control values showing that the protein was still present and immunoreactive.
To determine whether shear forces might have an effect on stability, pre-formed CRP/Pk-023 complexes prepared with either a 2.5- or 5-fold molar excess of ligand were added to heparinised mouse plasma and stirred rapidly at room temperature for 3 h.
CRP/Pk-023 complexes formed at 5-fold ligand excess were stable during exhaustive dialysis against TC buffer for up to 96 h at room temperature, as shown by the Roche CRP assay values. After 30 h, ˜8% of the complex had dissociated, with a further 2.5% dissociation at 96 h. Similarly, CRP/Pk-023 complexes pre-formed in serum were stable during dialysis against TC buffer for 24 h at room temperature with shear forces produced by a magnetic stir bar inserted into the dialysis tubing. ^125I-CRP was included to correct for dilution account for any effects of dilution.

For orientation: IC50 means the midpoint of a concentration-inhibition curve. In the case of `O=P(O)(OCCCCCCCCOP(=O)(O)O[C@@H]1CN2CCC1CC2)O[C@@H]1CN2CCC1CC2` [Pk-023, [(3S)-1-azabicyclo[2.2.2]octan-3-yloxy]({[8-({[(3S)-1-azabicyclo[2.2.2]octan-3-yloxy](hydroxy)phosphoryl}oxy)octyl]oxy})phosphinic acid], in assay [1], the half-maximal inhibitory concentration (IC50) came out at 150 nM. Further, the Stable to rechromatography entry in assay [2] (CRP/ligand complex re-chromatographed in absence of free ligand) was “remained intact and Yes”. Besides, the “CRP elution volume from Superdex 200 after pre-incubation with ligand” value in assay [2] (native CRP pentamer elutes at 13.9 ml) was found to be 12.6 mL. Further, the “Stability of complex to shear forces (Roche CRP reactivity)” value in assay [3] (2.5- or 5-fold ligand excess, heparinised mouse plasma, stirred rapidly, room temperature, 3 h) is “stable throughout the experiment”. In assay [3] (5-fold ligand excess, room temperature, after 30 h), the “Complex dissociated during dialysis against TC buffer” value is reported as ~8%. Moreover, the “Stability of pre-formed CRP/ligand complex (Roche CRP)” value in assay [3] (5-fold ligand excess, TC buffer, mouse heparinised plasma or whole mouse blood, 37° C., up to 3 hours) is recorded as “stable throughout the experiment”. In assay [3] (after incubation in mouse plasma/whole blood), the “Roche CRP concentration recovered on addition of EDTA” value is ~70 % of control values. Besides, the “Further dissociation of complex during dialysis” value in assay [3] (at 96 h) was found to be 2.5%. In addition, the “Stability of complexes pre-formed in serum during dialysis” value in assay [3] (dialysis against TC buffer 24 h, room temperature, with shear forces) is given as “stable”.
